Results as given in US20220117938A1, “COMBINATON THERAPY WITH A DON PRODRUG AND AN IMMUNE CHECKPOINT INHIBITOR” (DRACEN PHARMACEUTICALS, INC., priority 2019, published 2022).

Tests used:
CT26.WT tumors = assay: Anti-tumor efficacy of Compound 1 by IV and SC routes in the CT26.WT model (Example 8); format: in vivo, mice
Experimental: Female BALB/c mice were inoculated subcutaneously in the right flank with CT26.WT cells for tumor development. Six days after tumor inoculation, mice with tumor sizes ranging from 32-77 mm^3 (average tumor size 56 mm^3) were selected and assigned into 6 groups using stratified randomization with 8 mice per group based upon their tumor volumes. The treatments were started from the day of randomization (defined as D0), Group 1 was treated with Vehicle control, q.d.×5 days on (Mon-Fri)×4 cycles s.c.; Group 2 was treated with Compound 1, 0.7 mpk×5 days on (Mon-Fri)×4 cycles s.c.; Group 3 was treated with Compound 1, 1.4 mpk×5 days on (Mon-Fri)×4 cycles s.c.; Group 4 was treated with Compound 1, 4.5 mpk×3-days on (Mon, Wed, Fri)×4 cycles, iv; Group 5 was treated with Compound 1, 7 mpk×2-days on (Mon,Thu)×4 cycles, iv; Group 6 was treated with Compound 1, 14 mpk×1-day on (Mon)×4 cycles, iv. The tumor sizes were measured three times per week during the treatment. The entire study was terminated on D44 after start of the treatment. All treatments were well-tolerated without any adverse effects or significant body weight loss.

A549 tumors = assay: Anti-tumor efficacy of Compound 1 in the A549 xenograft model (Example 11); format: in vivo, mice
Experimental: Female BALB/c nude mice were inoculated subcutaneously in the right flank with A549 cells for tumor development. Eight days after tumor inoculation, mice with tumor sizes ranging from 100-200 mm^3 (average tumor size 156 mm^3) were selected and assigned into groups using stratified randomization with 8 mice per group based upon their tumor volumes. The treatments were started from the day of randomization (defined as D0), Group 1 was treated with Vehicle control, 10 ml/kg, IP, bid×21; Group 4 was treated with Compound 1; 1.4 mg/kg, SC, 5d ON, 2 d OFF×3 cycles; and Group 5 was treated with Compound 1, 3.3 mg/kg, IV, tiw, (Fri, Sun, Tues), ×3 cycles. The tumor sizes were measured two times per week during the treatment. The entire study was terminated on D21 after start of the treatment. All treatments were well-tolerated without any adverse effects or significant body weight loss.

[1] = Group 5, 7 mpk iv Mon,Thu x4 cycles
[2] = Group 5, 7 mpk iv Mon,Thu x4 cycles, day 16
[3] = Group 6, 14 mpk iv Mon x4 cycles
[4] = Group 6, 14 mpk iv Mon x4 cycles, day 16
[5] = Group 4, 1.4 mg/kg SC 5 d ON 2 d OFF x3 cycles
[6] = Group 4, 1.4 mg/kg SC 5 d ON 2 d OFF x3 cycles, day 21
[7] = Group 5, 3.3 mg/kg IV tiw x3 cycles
[8] = Group 5, 3.3 mg/kg IV tiw x3 cycles, day 21

## CC(=O)N[C@@H](Cc1c[nH]c2ccccc12)C(=O)N[C@@H](CCC(=O)C=[N+]=[N-])C(=O)OC(C)C [Compound 1, Isopropyl (S)-2-((S)-2-acetamido-3-(1H-indol-3-yl)propanamido)-6-diazo-5-oxohexanoate]
CT26.WT tumors; [1]
  ILS: 61.1%
  MST: 29 days
  RTV at day 16: 7.58 ± 1.97
CT26.WT tumors; Group 5, 7 mpk iv Mon,Thu x4 cycles, day 0
  Tumor volume: 56 ± 4 mm^3
CT26.WT tumors; Group 5, 7 mpk iv Mon,Thu x4 cycles, day 2
  Tumor volume: 71 ± 9 mm^3
CT26.WT tumors; Group 5, 7 mpk iv Mon,Thu x4 cycles, day 4
  Tumor volume: 78 ± 11 mm^3
CT26.WT tumors; Group 5, 7 mpk iv Mon,Thu x4 cycles, day 7
  Tumor volume: 142 ± 26 mm^3
CT26.WT tumors; Group 5, 7 mpk iv Mon,Thu x4 cycles, day 9
  Tumor volume: 166 ± 37 mm^3
CT26.WT tumors; Group 5, 7 mpk iv Mon,Thu x4 cycles, day 11
  Tumor volume: 185 ± 45 mm^3
CT26.WT tumors; Group 5, 7 mpk iv Mon,Thu x4 cycles, day 14
  Tumor volume: 395 ± 114 mm^3
CT26.WT tumors; [2]
  T/C: 24.28%
  TGI: 76.00%
  Tumor volume: 455 ± 131 mm^3
CT26.WT tumors; Group 5, 7 mpk iv Mon,Thu x4 cycles, day 18
  Tumor volume: 518 ± 135 mm^3
CT26.WT tumors; Group 5, 7 mpk iv Mon,Thu x4 cycles, day 21
  Tumor volume: 878 ± 272 mm^3
CT26.WT tumors; [3]
  ILS: 47.2%
  MST: 26.5 days
  RTV at day 16: 7.02 ± 0.87
CT26.WT tumors; Group 6, 14 mpk iv Mon x4 cycles, day 0
  Tumor volume: 56 ± 5 mm^3
CT26.WT tumors; Group 6, 14 mpk iv Mon x4 cycles, day 2
  Tumor volume: 69 ± 7 mm^3
CT26.WT tumors; Group 6, 14 mpk iv Mon x4 cycles, day 4
  Tumor volume: 78 ± 5 mm^3
CT26.WT tumors; Group 6, 14 mpk iv Mon x4 cycles, day 7
  Tumor volume: 163 ± 24 mm^3
CT26.WT tumors; Group 6, 14 mpk iv Mon x4 cycles, day 9
  Tumor volume: 160 ± 22 mm^3
CT26.WT tumors; Group 6, 14 mpk iv Mon x4 cycles, day 11
  Tumor volume: 204 ± 29 mm^3
CT26.WT tumors; Group 6, 14 mpk iv Mon x4 cycles, day 14
  Tumor volume: 425 ± 72 mm^3
CT26.WT tumors; [4]
  T/C: 22.49%
  TGI: 78.92%
  Tumor volume: 406 ± 74 mm^3
CT26.WT tumors; Group 6, 14 mpk iv Mon x4 cycles, day 18
  Tumor volume: 578 ± 89 mm^3
CT26.WT tumors; Group 6, 14 mpk iv Mon x4 cycles, day 21
  Tumor volume: 1035 ± 150 mm^3
CT26.WT tumors; Group 6, 14 mpk iv Mon x4 cycles, day 23
  Tumor volume: 1216 ± 177 mm^3
CT26.WT tumors; Group 6, 14 mpk iv Mon x4 cycles, day 25
  Tumor volume: 1684 ± 231 mm^3
A549 tumors; [5]
  RTV at day 21: 8.61 ± 1.30
  Tumor Size at day 21: 1300 ± 161 mm^3
A549 tumors; Group 4, 1.4 mg/kg SC 5 d ON 2 d OFF x3 cycles, day 0
  Tumor volume: 155 ± 10 mm^3
A549 tumors; Group 4, 1.4 mg/kg SC 5 d ON 2 d OFF x3 cycles, day 4
  Tumor volume: 187 ± 12 mm^3
A549 tumors; Group 4, 1.4 mg/kg SC 5 d ON 2 d OFF x3 cycles, day 7
  Tumor volume: 273 ± 25 mm^3
A549 tumors; Group 4, 1.4 mg/kg SC 5 d ON 2 d OFF x3 cycles, day 11
  Tumor volume: 500 ± 59 mm^3
A549 tumors; Group 4, 1.4 mg/kg SC 5 d ON 2 d OFF x3 cycles, day 14
  Tumor volume: 658 ± 92 mm^3
A549 tumors; Group 4, 1.4 mg/kg SC 5 d ON 2 d OFF x3 cycles, day 18
  Tumor volume: 1050 ± 112 mm^3
A549 tumors; [6]
  T/C: 75.88%
  TGI: 28.57%
  Tumor volume: 1300 ± 161 mm^3
A549 tumors; [7]
  RTV at day 21: 9.55 ± 1.16
  Tumor Size at day 21: 1453 ± 171 mm^3
A549 tumors; Group 5, 3.3 mg/kg IV tiw x3 cycles, day 0
  Tumor volume: 156 ± 10 mm^3
A549 tumors; Group 5, 3.3 mg/kg IV tiw x3 cycles, day 4
  Tumor volume: 180 ± 12 mm^3
A549 tumors; Group 5, 3.3 mg/kg IV tiw x3 cycles, day 7
  Tumor volume: 268 ± 21 mm^3
A549 tumors; Group 5, 3.3 mg/kg IV tiw x3 cycles, day 11
  Tumor volume: 473 ± 39 mm^3
A549 tumors; Group 5, 3.3 mg/kg IV tiw x3 cycles, day 14
  Tumor volume: 647 ± 66 mm^3
A549 tumors; Group 5, 3.3 mg/kg IV tiw x3 cycles, day 18
  Tumor volume: 1107 ± 119 mm^3
A549 tumors; [8]
  T/C: 84.12%
  TGI: 19.04%
  Tumor volume: 1453 ± 171 mm^3
